Experimental data published in patent publication US9156801B2, “2-substituted oleanolic acid derivative, method preparing for same, and application thereof” (HANGZHOU BENSHENG PHARMACEUTICAL CO., LTD., priority 2011, dated 2015).
Values after ≈ are worked out from the molar mass of the structure shown.

Assays:
[1] = test system: RPMI8226 cell line; experiment: multiple myeloma cell growth inhibition, MTT; assay type: cell-based; conditions: Homo sapiens, RPMI-8226; for inhibition at 16 µg/mL: RPMI8226, 16 μg/mL compound, 72 h, read-out: IR (cell proliferation inhibition rate); for IC50: RPMI8226, 72 h
Method: Multiple myeloma cell lines: RPMI8226 (multiple myeloma), purchased from Fuxiang Bio-tech Co. Ltd., Shanghai, China.
(§1) Obtaining 6000 well-growing cells as above and inoculating them into wells of a 96-well cell culture plate. The culture medium is the 1640 cell culture medium containing 10% fetal bovine serum. After adding the 2-substituted oleanolic acid derivatives of different concentrations and mixing uniformly, placing the plate in a carbon dioxide cell incubator (5% CO2) at 37° C. and incubated for 72 hours. Then the relative number of viable cells is determined by MTT method. In this experiment, cell proliferation inhibition rate in control group (not treated with any compound) is set as 0%.

[2] = test system: Hep G2 cell line; experiment: solid tumor cell growth inhibition, MTT; assay type: cell-based, human; conditions: Homo sapiens; for inhibition at 16 µg/mL: HepG2, 72 h, Hep G2, 16 μg/mL compound, 72 h, read-out: IR (cell proliferation inhibition rate); for IC50: HepG2, Hep G2, 72 h
Method: (§2) Hep-2 (laryngeal carcinoma), A549 (human lung cancer), CaES-17 (esophageal cancer cell), PC-3 (prostate cancer), CNE (nasopharyngeal carcinoma cell), and SK-OV-3 (ovarian cancer cell), all of which are purchased from China Center For Type Culture Collection; RKO (human colon adenocarcinoma cell), MGC 803 (human gastric cancer cell), MG63 (osteosarcoma) and U87 MG (malignant glioma cell), all of which are purchased from Fuxiang Bio-tech Co. Ltd., Shanghai, China; PANC-1 (pancreatic cancer), Hep G2 (human liver cancer cell), Becap37 (human breast cancer cell), and Hela (human cervical cancer cell), all of which are donated by Cancer Research Institute of Zhejiang University, China.
(§3) Obtaining 4000 well-growing human solid tumor cells and inoculating them into wells of a 96-well cell culture plate. The culture medium is DMEM High Glucose cell culture medium containing 10% fetal bovine serum. The plate is placed in a carbon dioxide cell incubator (5% CO2) at 37° C. for 24 hours. After adding the 2-substituted oleanolic acid derivatives of different concentrations and mixing uniformly, the plate is placed in a carbon dioxide cell incubator (5% CO2) at 37° C. and incubated for 72 hours. Then the relative number of the living cells is determined by MTT method. In this experiment, the cell proliferation inhibition rate in control group (not treated with any compound) is set as 0%.

[3] = test system: Hela cell line; experiment: solid tumor cell growth inhibition, MTT; assay type: cell-based; conditions: Homo sapiens, 72 h; for IC50: HeLa; for inhibition at 16 µg/mL: Hela, 16 μg/mL compound, read-out: IR (cell proliferation inhibition rate)
Method: as §2, §3

[4] = test system: SK-OV-3 cell line; experiment: solid tumor cell growth inhibition, MTT; assay type: cell-based; conditions: Homo sapiens; for IC50: SK-OV-3, 72 h; for inhibition at 16 µg/mL: SK-OV-3, 16 μg/mL compound, 72 h, read-out: IR (cell proliferation inhibition rate)
Method: as §2, §3

[5] = test system: MGC 803 cell line; experiment: solid tumor cell growth inhibition, MTT; assay type: cell-based; conditions: Homo sapiens; for inhibition at 16 µg/mL: MGC 803, 16 μg/mL compound, 72 h, read-out: IR (cell proliferation inhibition rate); for IC50: MGC 803, 72 h
Method: as §2, §3

[6] = test system: Becap37 cell line; experiment: solid tumor cell growth inhibition, MTT; assay type: cell-based; conditions: Homo sapiens; for inhibition at 16 µg/mL: Becap37, 16 μg/mL compound, 72 h, read-out: IR (cell proliferation inhibition rate); for IC50: Becap37, 72 h
Method: as §2, §3

[7] = test system: CaES-17 cell line; experiment: solid tumor cell growth inhibition, MTT; assay type: cell-based; conditions: Homo sapiens, CaEs17; for inhibition at 16 µg/mL: CaES-17, 16 μg/mL compound, 72 h, read-out: IR (cell proliferation inhibition rate); for IC50: CaES-17, 72 h
Method: as §2, §3

[8] = test system: CNE cell line; experiment: solid tumor cell growth inhibition, MTT; assay type: cell-based; conditions: Homo sapiens, 72 h; for inhibition at 16 µg/mL: 16 μg/mL compound, read-out: IR (cell proliferation inhibition rate)
Method: as §2, §3

[9] = test system: MG-63 cell line; experiment: solid tumor cell growth inhibition, MTT; assay type: cell-based; conditions: Homo sapiens; for IC50: MG-63, 72 h; for inhibition at 16 µg/mL: MG-63, 16 μg/mL compound, 72 h, read-out: IR (cell proliferation inhibition rate)
Method: as §2, §3

[10] = test system: A549 cell line; experiment: solid tumor cell growth inhibition, MTT; assay type: cell-based; conditions: Homo sapiens; for IC50: A549, 72 h; for inhibition at 16 µg/mL: A549, 16 μg/mL compound, 72 h, read-out: IR (cell proliferation inhibition rate)
Method: as §2, §3

[11] = test system: Hep-2 cell line; experiment: solid tumor cell growth inhibition, MTT; assay type: cell-based; conditions: Homo sapiens; for IC50: HEp-2, 72 h; for inhibition at 16 µg/mL: Hep-2, 16 μg/mL compound, 72 h, read-out: IR (cell proliferation inhibition rate)
Method: as §2, §3

[12] = test system: U87 MG cell line; experiment: solid tumor cell growth inhibition, MTT; assay type: cell-based; conditions: Homo sapiens, U-87 MG, 72 h; for inhibition at 16 µg/mL: 16 μg/mL compound, read-out: IR (cell proliferation inhibition rate)
Method: as §2, §3

[13] = test system: PC-3 cell line; experiment: solid tumor cell growth inhibition, MTT; assay type: cell-based; conditions: Homo sapiens; for IC50: PC-3, 72 h; for inhibition at 16 µg/mL: PC-3, 16 μg/mL compound, 72 h, read-out: IR (cell proliferation inhibition rate)
Method: as §2, §3

[14] = test system: RKO cell line; experiment: solid tumor cell growth inhibition, MTT; assay type: cell-based; conditions: Homo sapiens, 72 h; for inhibition at 16 µg/mL: 16 μg/mL compound, read-out: IR (cell proliferation inhibition rate)
Method: as §2, §3

[15] = test system: PANC-1 cell line; experiment: solid tumor cell growth inhibition, MTT; assay type: cell-based; conditions: Homo sapiens; for IC50: PANC-1, 72 h; for inhibition at 16 µg/mL: PANC-1, 16 μg/mL compound, 72 h, read-out: IR (cell proliferation inhibition rate)
Method: as §2, §3

[16] = test system: Kasumi-1 cell line; experiment: leukemia cell growth inhibition, MTT; assay type: cell-based; conditions: Homo sapiens; for inhibition at 16 µg/mL: Kasumi-1, 16 μg/mL compound, 72 h, read-out: IR (cell proliferation inhibition rate); for IC50: Kasumi-1, 72 h
Text: (§4) Leukemia cell lines: leukemia cell lines: K562/adr (drug-resistant, chronic myeloid leukemia, CML), NB4 (acute promyelocytic leukemia, AML), Kasumi-1 (acute myeloid leukemia M2 type, AML-M2), Jurkat (acute lymphoblastic leukemia, ALL), all of which are donated by Cancer Research Institute of Zhejiang University, China; and H9 (acute lymphoblastic leukemia, ALL), which is purchased from China Center for Type Culture Collection (CCTCC).
as §1, with “well-growing leukemia” for “well-growing”, “cells” for “cells as above”

[17] = test system: K562/adr cell line; experiment: leukemia cell growth inhibition, MTT; assay type: cell-based; conditions: Homo sapiens, 72 h; for IC50: K562/Adr; for inhibition at 16 µg/mL: K562/adr, 16 μg/mL compound, read-out: IR (cell proliferation inhibition rate)
Text: as §4
as §1, with “well-growing leukemia” for “well-growing”, “cells” for “cells as above”

[18] = test system: Jurkat cell line; experiment: leukemia cell growth inhibition, MTT; assay type: cell-based; conditions: Homo sapiens, 72 h; for inhibition at 16 µg/mL: 16 μg/mL compound, read-out: IR (cell proliferation inhibition rate)
Text: as §4
as §1, with “well-growing leukemia” for “well-growing”, “cells” for “cells as above”

[19] = test system: NB4 cell line; experiment: leukemia cell growth inhibition, MTT; assay type: cell-based; conditions: Homo sapiens, NB-4; for inhibition at 16 µg/mL: NB4, 16 μg/mL compound, 72 h, read-out: IR (cell proliferation inhibition rate); for IC50: NB4, 72 h
Text: as §4
as §1, with “well-growing leukemia” for “well-growing”, “cells” for “cells as above”

[20] = test system: H9 cell line; experiment: leukemia cell growth inhibition, MTT; assay type: cell-based; conditions: Homo sapiens; for IC50: H9, 72 h; for inhibition at 16 µg/mL: H9, 16 μg/mL compound, 72 h, read-out: IR (cell proliferation inhibition rate)
Text: as §4
as §1, with “well-growing leukemia” for “well-growing”, “cells” for “cells as above”

IC50 [1] [µg/mL] | IC50 [2] [µg/mL] | IC50 [3] [µg/mL] | IC50 [4] [µg/mL] | IC50 [5] [µg/mL] | IC50 [6] [µg/mL] | IC50 [7] [µg/mL] | IC50 [8] [µg/mL] | IC50 [9] [µg/mL] | IC50 [10] [µg/mL] | Compound | inhibition at 16 µg/mL [1] [%] | inhibition at 16 µg/mL [2] [%] | inhibition at 16 µg/mL [3] [%] | inhibition at 16 µg/mL [4] [%] | inhibition at 16 µg/mL [5] [%] | inhibition at 16 µg/mL [6] [%] | inhibition at 16 µg/mL [7] [%] | inhibition at 16 µg/mL [8] [%] | inhibition at 16 µg/mL [9] [%] | inhibition at 16 µg/mL [10] [%] | also measured
> 16 | > 16 | > 16 | > 16 | > 16 | > 16 | > 16 | > 16 | > 16 | > 16 | COC(=O)[C@]12CCC(C)(C)CC1C1=CCC3[C@@]4(C)CC(C(=O)NC5CC5)C(=O)C(C)(C)C4CC[C@@]3(C)[C@]1(C)CC2 (some centres unmarked) [BS-OA-034] | 15.5 | 8.9 | 0.6 | 21.3 | -3.2 | -6.7 | -6.7 | 16.7 | -5.4 | 5.3 | IC50 [11]: > 16 µg/mL; inhibition at 16 µg/mL [11]: 5.4%; inhibition at 16 µg/mL [12]: 18.2%; IC50 [12]: > 16 µg/mL; IC50 [13]: > 16 µg/mL; inhibition at 16 µg/mL [13]: 19%; inhibition at 16 µg/mL [14]: -41%; IC50 [14]: > 16 µg/mL; IC50 [15]: > 16 µg/mL; inhibition at 16 µg/mL [15]: -9.9%; inhibition at 16 µg/mL [16]: 22.6%; IC50 [16]: > 16 µg/mL; IC50 [17]: > 16 µg/mL; inhibition at 16 µg/mL [17]: 25.3%; inhibition at 16 µg/mL [18]: -19.6%; IC50 [18]: > 16 µg/mL; inhibition at 16 µg/mL [19]: 22.3%; IC50 [19]: > 16 µg/mL; IC50 [20]: > 16 µg/mL; inhibition at 16 µg/mL [20]: 22.1%
0.61 (≈ 0.976 µM) | 1.94 (≈ 3.1 µM) | 3.11 (≈ 4.98 µM) | 3.72 (≈ 5.95 µM) | 2.56 (≈ 4.1 µM) | 5.2 (≈ 8.32 µM) | 2.74 (≈ 4.38 µM) | 3.64 (≈ 5.82 µM) | 1.62 (≈ 2.59 µM) | 2.02 (≈ 3.23 µM) | CCN(CC)CCCNC(=O)C1C[C@]2(C)[C@H]3CC=C4[C@@H]5CC(C)(C)CC[C@]5(C(=O)OC)CC[C@@]4(C)[C@]3(C)CC[C@H]2C(C)(C)C1=O (some centres unmarked) [BS-OA-035] | 99.1 | > 96 | 98.1 | 98.6 | 98.9 | 98.6 | 98 | 99 | 100 | 97.3 | IC50 [11]: 5.34 µg/mL (≈ 8.54 µM); inhibition at 16 µg/mL [11]: 98.5%; inhibition at 16 µg/mL [12]: 97.1%; IC50 [12]: 2.7 µg/mL (≈ 4.32 µM); IC50 [13]: 5 µg/mL (≈ 8 µM); inhibition at 16 µg/mL [13]: 98.5%; inhibition at 16 µg/mL [14]: 97.2%; IC50 [14]: 2.39 µg/mL (≈ 3.82 µM); IC50 [15]: 4.89 µg/mL (≈ 7.82 µM); inhibition at 16 µg/mL [15]: 99.8%; inhibition at 16 µg/mL [16]: 97%; IC50 [16]: 3.95 µg/mL (≈ 6.32 µM); IC50 [17]: 0.68 µg/mL (≈ 1.09 µM); inhibition at 16 µg/mL [17]: 99.6%; inhibition at 16 µg/mL [18]: 96.6%; IC50 [18]: 1.67 µg/mL (≈ 2.67 µM); inhibition at 16 µg/mL [19]: 99.8%; IC50 [19]: 2.96 µg/mL (≈ 4.74 µM); IC50 [20]: 2.67 µg/mL (≈ 4.27 µM); inhibition at 16 µg/mL [20]: 97.5%
